In test [1] the test system is IL-15 induced STAT5 phosphorylation in Human Whole Blood (total lymphocytes). Kind of test: HWB IL-15 Induced STAT5 Phosphorylation Assay. The test is classed as cell-based. Conditions: Lymphocyte, IL-15 stimulated, read-out: HWB-IL15-pSTAT5 IC50. The procedure:
HWB IL-15 Induced STAT5 Phosphorylation Assay
After mixing and incubating for 45 minutes at 37° C., 5 μl D-PBS (unstimulated control) or 20× stocks of 5 μl human IL-15 (final concentration is 50 ng/ml) were added, and mixed three times. After incubating 15 minutes at 37° C., 1× Lyse/Fix Buffer (BD Phosflow 5× Lyse/Fix Buffer) was added to all wells at 1000 μl/well, then incubated for 20 minutes at 37° C. and spun 5 mins at 1200 rpm. […] Following incubating at 4° C. over night, all the samples were transferred to 96-well polypropylene U-bottom plate, and checked by flow cytometry gated on total lymphocytes.

Test [2] has as its system IL-15 induced P-STAT5 in human PBMC (total lymphocytes). The experiment in a line: PBMC IL-15 Induced P-STAT5. In kind it is cell-based. Conditions: IL-15 stimulated, read-out: PBMC IL15-pSTAT5 IC50. Here is the method: PBMC IL-15 Induced P-STAT5
Frozen human PBMC (200-250 million cells/vial) was thawed at 37° C. The cells were transferred to 10 mL warm medium in a 50-mL conical tube, and centrifuged at 1,200 RPM at room temperature for 5 min. The supernatant was aspirated. […] After adding 47 ml D-PBS (37° C.) to PBMC/FBS suspension, centrifuging at 1,200 RPM at room temperature for 5 min, and aspirating the supernatant, the cells were resuspended in 20 mL warm RPMI medium. Ninety μL of cell suspension were pipetted per well in a 96-well, deep-well, V-bottom plate, and the plate was incubated at 37° C. for 30 min. […] After adding 0.8 mL staining buffer per well, the plates were centrifuged at 1,200 RPM (Beckman GS-6R or Sorvall Legend) at room temperature for 5 min, and again the supernatant was aspirated using a 8-channel or 12-channel manifold. The plate was vortexed, and 0.35 mL 90% methanol/10% H2O (−20° C.) was added per well, and the plate incubated on ice for 20 min. After again adding 0.8 mL staining buffer per well, the plates were centrifuged at 1,200 RPM (Beckman GS-6R or Sorvall Legend) at room temperature for 5 min, and again the supernatant was aspirated using a 8-channel or 12-channel manifold, and then 0.8 mL Staining buffer was added per well. After once again adding 0.8 mL staining buffer per well, the plates were centrifuged at 1,200 RPM (Beckman GS-6R or Sorvall Legend) at room temperature for 5 min, and again the supernatant was aspirated using a 8-channel or 12-channel manifold. […] Samples of 250 μL/well were transferred to a 96-well U-bottom plate, and the FACS analysis was performed gating on total lymphocytes. Samples were analyzed using a BD Calibur™ or BD FACSCanto™ flow cytometer equipped with the BD High Throughput Sampler.

The text below walks through data of patent US11111242B2, “Pyrrolo[2,3-d]pyrimidinyl, pyrrolo[2,3-b]pyrazinyl and pyrrolo[2,3-d]pyridinyl acrylamides” (Pfizer Inc., priority 2013, dated 2021).

The IC50 is the point on the concentration scale where inhibition reaches its midpoint.

Structures are written as SMILES. Like-named read-outs stand apart in the source and are kept apart here.

Consider `C=CC(=O)N1CCC(Nc2cnc3[nH]cc(C(=O)NC4CCCCC4)c3n2)CC1` [Example 278, 2-[(1-acryloylpiperidin-4-yl)amino]-N-cyclohexyl-5H-pyrrolo[2,3-b]pyrazine-7-carboxamide], for which the IC50 in test [1] stood at 362 nM; in test [2], 57.4 nM.

Turning to `C=CC(=O)N1CCC(Nc2cnc3[nH]cc(C(=O)NCC(C)C)c3n2)CC1` [Example 272, 2-[(1-acryloylpiperidin-4-yl)amino]-N-(2-methylpropyl)-5H-pyrrolo[2,3-b]pyrazine-7-carboxamide], the IC50 came out at 259 nM in test [1] and 72.3 nM in test [2] (Homo sapiens, PBMC).

For the compound `C=CC(=O)N1CC[C@@H]2CCN(c3ncnc4[nH]ccc34)[C@@H]2C1` (single isomer, unassigned) [Example 8], the IC50 in test [1] was 399 nM.

`C=CC(=O)N1CCC(Nc2cnc3[nH]cc(C(=O)NCC4CC(F)(F)C4)c3n2)CC1` [Example 238, 2-[(1-acryloylpiperidin-4-yl)amino]-N-[(3,3-difluorocyclobutyl)methyl]-5H-pyrrolo[2,3-b]pyrazine-7-carboxamide]: the IC50 was 615 nM in test [1] and 181 nM in test [2] (Homo sapiens, PBMC).

As for `C=CC(=O)N1C[C@H](Nc2ncnc3[nH]cc(CCOC)c23)CC[C@@H]1C` [Example 13, 1-((2S,5R)-5-((5-(2-Methoxyethyl)-7H-pyrrolo[2,3-d]pyrimidin-4-yl)amino)-2-methylpiperidin-1-yl)prop-2-en-1-one], the IC50 in test [1] was found to be 549 nM; in test [2] it was 114 nM.

With `C=CC(=O)N1CCN(c2cnc3[nH]cc(C(=O)NC(C)C)c3n2)CC1` [Example 174, 2-(4-acryloylpiperazin-1-yl)-N-(propan-2-yl)-5H-pyrrolo[2,3-b]pyrazine-7-carboxamide], the values for the IC50 in test [1] and in test [2] were 623 nM and 58.4 nM, respectively.

As to `C=CC(=O)N1CCN(c2cnc3[nH]cc(C(=O)NC(C)C)c3n2)C[C@@H]1CC(C)C` [Example 303, 2-[(3S)-4-acryloyl-3-(2-methylpropyl)piperazin-1-yl]-N-(propan-2-yl)-5H-pyrrolo[2,3-b]pyrazine-7-carboxamide], the IC50 in test [1] is 2730 nM; in test [2] (Homo sapiens, PBMC) it was 294 nM.

On to `C=CC(=O)N1[C@@H]2CC[C@H]1CN(c1cnc3[nH]cc(C(=O)NC(C)C)c3n1)C2` [Example 301, 2-[(1R,5S)-8-acryloyl-3,8-diazabicyclo[3.2.1]oct-3-yl]-N-(propan-2-yl)-5H-pyrrolo[2,3-b]pyrazine-7-carboxamide], for which the IC50 was 4900 nM in test [1] and 408 nM in test [2].

In the case of `C=CC(=O)N1CCC(Nc2cnc3[nH]cc(C(=O)NC(C)(C)C)c3n2)CC1` [Example 266, 2-[(1-acryloylpiperidin-4-yl)amino]-N-tert-butyl-5H-pyrrolo[2,3-b]pyrazine-7-carboxamide], the IC50 amounted to 386 nM in test [1] and 71 nM in test [2].

For `C=CC(=O)N1CCC(Nc2cnc3[nH]cc(C(=O)NC4CCC(F)(F)C4)c3n2)CC1` (stereo not drawn) [Example 259, 2-[(1-acryloylpiperidin-4-yl)amino]-N-(3,3-difluorocyclopentyl)-5H-pyrrolo[2,3-b]pyrazine-7-carboxamide], the values for the IC50 in test [1] and in test [2] were 668 nM and 117 nM, respectively.

Take `C=CC(=O)N1C[C@H](Nc2ncnc3[nH]cc(C#N)c23)CC[C@@H]1C` [Example 163, 4-{[(3R,6S)-1-Acryloyl-6-methylpiperidin-3-yl]amino}-7H-pyrrolo[2,3-d]pyrimidine-5-carbonitrile]: the IC50 in test [1] was 522 nM; in test [2] (Homo sapiens, PBMC) it was 109 nM.

With `C=CC(=O)N1CCC(Nc2cnc3[nH]cc(C(=O)NC4CCCC(F)(F)C4)c3n2)CC1` (stereo not drawn) [Example 236, 2-[(1-acryloylpiperidin-4-yl)amino]-N-(3,3-difluorocyclohexyl)-5H-pyrrolo[2,3-b]pyrazine-7-carboxamide], the IC50 was determined as 438 nM in test [1] and 142 nM in test [2].

For the compound `C=CC(=O)N1CCC(Nc2cnc3[nH]cc(C(=O)N[C@@H]4C[C@H]4C(F)(F)F)c3n2)CC1` [Example 233, 2-[(1-acryloylpiperidin-4-yl)amino]-N-[(1R,2R)-2-(trifluoromethyl)cyclopropyl]-5H-pyrrolo[2,3-b]pyrazine-7-carboxamide], the IC50 in test [1] came out at 532 nM; in test [2], 213 nM.

Regarding `C=CC(=O)N1CCC(Nc2cnc3[nH]cc(C(=O)NCCCC(F)(F)F)c3n2)CC1` [Example 240, 2-[(1-acryloylpiperidin-4-yl)amino]-N-(4,4,4-trifluorobutyl)-5H-pyrrolo[2,3-b]pyrazine-7-carboxamide], the IC50 in test [1] is 442 nM; in test [2] it was 83.8 nM.

Regarding `C=CC(=O)N1CCC[C@@H](Nc2ncnc3[nH]cc(CCOC)c23)C1` [Example 46, 1-[(3R)-3-{[5-(2-methoxyethyl)-7H-pyrrolo[2,3-d]pyrimidin-4-yl]amino}piperidin-1-yl]prop-2-en-1-one], the IC50 in test [1] turned out to be 359 nM; in test [2] (Homo sapiens, PBMC), 279 nM.

As to `C=CC(=O)N1CCC[C@@H](Nc2ncnc3[nH]cc(Cl)c23)C1` [Example 3, (R)-1-(3-((5-chloro-7H-pyrrolo[2,3-d]pyrimidin-4-yl)amino)piperidin-1-yl)prop-2-en-1-one], the IC50 was determined as 153 nM in test [1] and 35.2 nM in test [2] (Homo sapiens, PBMC).

For `C=CC(=O)N1CC[C@@H](Nc2cnc3[nH]cc(C(=O)NC(C)C)c3n2)[C@H](OC)C1` [Example 305, 2-{[(3R,4R)-1-acryloyl-3-methoxypiperidin-4-yl]amino}-N-(propan-2-yl)-5H-pyrrolo[2,3-b]pyrazine-7-carboxamide], the IC50 in test [1] is 2640 nM; in test [2], 744 nM.

On to `C=CC(=O)N1CC(Nc2ncnc3[nH]ccc23)CCC1CO` (stereo not drawn) [Example 52, 1-[2-(Hydroxymethyl)-5-(7H-pyrrolo[2,3-d]pyrimidin-4-ylamino)piperidin-1-yl]prop-2-en-1-one], for which, in test [1], the IC50 stood at 235 nM.

Consider `C=CC(=O)N1CCC(Nc2cnc3[nH]cc(C(=O)N[C@@H](C(C)C)[C@H](O)C(F)(F)F)c3n2)CC1` [Example 252, 2-[(1-acryloylpiperidin-4-yl)amino]-N-[(2S,3S)-1,1,1-trifluoro-2-hydroxy-4-methylpentan-3-yl]-5H-pyrrolo[2,3-b]pyrazine-7-carboxamide], for which, in test [2], the IC50 turned out to be 673 nM.

`C=CC(=O)N1CCN(c2cnc3[nH]cc(C(=O)NC(C)C)c3n2)[C@H](C)C1` [Example 307, 2-[(2R)-4-acryloyl-2-methylpiperazin-1-yl]-N-(propan-2-yl)-5H-pyrrolo[2,3-b]pyrazine-7-carboxamide]: the IC50 in test [2] is 457 nM.

Take `C=CC(=O)N1CCC(Nc2cnc3[nH]cc(C(=O)N[C@H](C(C)C)[C@@H](O)C(F)(F)F)c3n2)CC1` [Example 248, 2-[(1-acryloylpiperidin-4-yl)amino]-N-[(2R,3R)-1,1,1-trifluoro-2-hydroxy-4-methylpentan-3-yl]-5H-pyrrolo[2,3-b]pyrazine-7-carboxamide]: the half-maximal inhibitory concentration (IC50) in test [2] was 893 nM.

For `C=CC(=O)N1CCC(Oc2cnc3[nH]cc(-c4cncc(C#N)c4)c3n2)CC1` [Example 225, 5-{2-[(1-acryloylpiperidin-4-yl)oxy]-5H-pyrrolo[2,3-b]pyrazin-7-yl}pyridine-3-carbonitrile], the IC50 in test [2] was determined as 2910 nM.

Regarding `C=CC(=O)N1CCC(Nc2cnc3[nH]cc(-c4cccc(C(=O)NC)c4)c3n2)CC1` [Example 204, 3-{2-[(1-acryloylpiperidin-4-yl)amino]-5H-pyrrolo[2,3-b]pyrazin-7-yl}-N-methylbenzamide], the IC50 in test [2] is 855 nM.

With `C=CC(=O)N1CCC(Nc2cnc3[nH]cc(C(=O)NCC4(O)CCCC[C@@H]4F)c3n2)CC1` (stereo partly drawn) [Example 254, 2-[(1-acryloylpiperidin-4-yl)amino]-N-{[(2S)-2-fluoro-1-hydroxycyclohexyl]methyl}-5H-pyrrolo[2,3-b]pyrazine-7-carboxamide], the IC50 in test [2] came to 836 nM.

For the compound `C=CC(=O)N1CCN(c2cnc3[nH]cc(C(=O)NC(C)C)c3n2)[C@@H](C)C1` [Example 297, 2-[(2S)-4-acryloyl-2-methylpiperazin-1-yl]-N-(propan-2-yl)-5H-pyrrolo[2,3-b]pyrazine-7-carboxamide], the IC50 in test [2] was determined as 752 nM.

In the case of `C=CC(=O)N1CCC(Nc2cnc3[nH]cc(C(=O)NCC4(O)CCCC4)c3n2)CC1` [Example 232, 2-[(1-acryloylpiperidin-4-yl)amino]-N-[(1-hydroxycyclopentyl)methyl]-5H-pyrrolo[2,3-b]pyrazine-7-carboxamide], the IC50 in test [2] worked out at 1640 nM.
